Experimental data: ChEMBL document CHEMBL5576037, “Discovery of the first ataxia telangiectasia and Rad3-related (ATR) degraders for cancer treatment” (Eur J Med Chem, 2024)
Activity calls are given as the source filed them. No cut-off for these calls is given here.

Tests used:
[1] = target: T1, Protein cereblon/Serine/threonine-protein kinase ATR (Homo sapiens, UniProt Q13535+Q96SW2); assay: PROTAC activity at CRBN/ATR in human LoVo cells assessed as induction of ATR degradation by measuring maximal efficacy after 72 hrs by Western blot analysis relative to control; format: cell-based
T1 sequence (Q13535 whole entry, looked up): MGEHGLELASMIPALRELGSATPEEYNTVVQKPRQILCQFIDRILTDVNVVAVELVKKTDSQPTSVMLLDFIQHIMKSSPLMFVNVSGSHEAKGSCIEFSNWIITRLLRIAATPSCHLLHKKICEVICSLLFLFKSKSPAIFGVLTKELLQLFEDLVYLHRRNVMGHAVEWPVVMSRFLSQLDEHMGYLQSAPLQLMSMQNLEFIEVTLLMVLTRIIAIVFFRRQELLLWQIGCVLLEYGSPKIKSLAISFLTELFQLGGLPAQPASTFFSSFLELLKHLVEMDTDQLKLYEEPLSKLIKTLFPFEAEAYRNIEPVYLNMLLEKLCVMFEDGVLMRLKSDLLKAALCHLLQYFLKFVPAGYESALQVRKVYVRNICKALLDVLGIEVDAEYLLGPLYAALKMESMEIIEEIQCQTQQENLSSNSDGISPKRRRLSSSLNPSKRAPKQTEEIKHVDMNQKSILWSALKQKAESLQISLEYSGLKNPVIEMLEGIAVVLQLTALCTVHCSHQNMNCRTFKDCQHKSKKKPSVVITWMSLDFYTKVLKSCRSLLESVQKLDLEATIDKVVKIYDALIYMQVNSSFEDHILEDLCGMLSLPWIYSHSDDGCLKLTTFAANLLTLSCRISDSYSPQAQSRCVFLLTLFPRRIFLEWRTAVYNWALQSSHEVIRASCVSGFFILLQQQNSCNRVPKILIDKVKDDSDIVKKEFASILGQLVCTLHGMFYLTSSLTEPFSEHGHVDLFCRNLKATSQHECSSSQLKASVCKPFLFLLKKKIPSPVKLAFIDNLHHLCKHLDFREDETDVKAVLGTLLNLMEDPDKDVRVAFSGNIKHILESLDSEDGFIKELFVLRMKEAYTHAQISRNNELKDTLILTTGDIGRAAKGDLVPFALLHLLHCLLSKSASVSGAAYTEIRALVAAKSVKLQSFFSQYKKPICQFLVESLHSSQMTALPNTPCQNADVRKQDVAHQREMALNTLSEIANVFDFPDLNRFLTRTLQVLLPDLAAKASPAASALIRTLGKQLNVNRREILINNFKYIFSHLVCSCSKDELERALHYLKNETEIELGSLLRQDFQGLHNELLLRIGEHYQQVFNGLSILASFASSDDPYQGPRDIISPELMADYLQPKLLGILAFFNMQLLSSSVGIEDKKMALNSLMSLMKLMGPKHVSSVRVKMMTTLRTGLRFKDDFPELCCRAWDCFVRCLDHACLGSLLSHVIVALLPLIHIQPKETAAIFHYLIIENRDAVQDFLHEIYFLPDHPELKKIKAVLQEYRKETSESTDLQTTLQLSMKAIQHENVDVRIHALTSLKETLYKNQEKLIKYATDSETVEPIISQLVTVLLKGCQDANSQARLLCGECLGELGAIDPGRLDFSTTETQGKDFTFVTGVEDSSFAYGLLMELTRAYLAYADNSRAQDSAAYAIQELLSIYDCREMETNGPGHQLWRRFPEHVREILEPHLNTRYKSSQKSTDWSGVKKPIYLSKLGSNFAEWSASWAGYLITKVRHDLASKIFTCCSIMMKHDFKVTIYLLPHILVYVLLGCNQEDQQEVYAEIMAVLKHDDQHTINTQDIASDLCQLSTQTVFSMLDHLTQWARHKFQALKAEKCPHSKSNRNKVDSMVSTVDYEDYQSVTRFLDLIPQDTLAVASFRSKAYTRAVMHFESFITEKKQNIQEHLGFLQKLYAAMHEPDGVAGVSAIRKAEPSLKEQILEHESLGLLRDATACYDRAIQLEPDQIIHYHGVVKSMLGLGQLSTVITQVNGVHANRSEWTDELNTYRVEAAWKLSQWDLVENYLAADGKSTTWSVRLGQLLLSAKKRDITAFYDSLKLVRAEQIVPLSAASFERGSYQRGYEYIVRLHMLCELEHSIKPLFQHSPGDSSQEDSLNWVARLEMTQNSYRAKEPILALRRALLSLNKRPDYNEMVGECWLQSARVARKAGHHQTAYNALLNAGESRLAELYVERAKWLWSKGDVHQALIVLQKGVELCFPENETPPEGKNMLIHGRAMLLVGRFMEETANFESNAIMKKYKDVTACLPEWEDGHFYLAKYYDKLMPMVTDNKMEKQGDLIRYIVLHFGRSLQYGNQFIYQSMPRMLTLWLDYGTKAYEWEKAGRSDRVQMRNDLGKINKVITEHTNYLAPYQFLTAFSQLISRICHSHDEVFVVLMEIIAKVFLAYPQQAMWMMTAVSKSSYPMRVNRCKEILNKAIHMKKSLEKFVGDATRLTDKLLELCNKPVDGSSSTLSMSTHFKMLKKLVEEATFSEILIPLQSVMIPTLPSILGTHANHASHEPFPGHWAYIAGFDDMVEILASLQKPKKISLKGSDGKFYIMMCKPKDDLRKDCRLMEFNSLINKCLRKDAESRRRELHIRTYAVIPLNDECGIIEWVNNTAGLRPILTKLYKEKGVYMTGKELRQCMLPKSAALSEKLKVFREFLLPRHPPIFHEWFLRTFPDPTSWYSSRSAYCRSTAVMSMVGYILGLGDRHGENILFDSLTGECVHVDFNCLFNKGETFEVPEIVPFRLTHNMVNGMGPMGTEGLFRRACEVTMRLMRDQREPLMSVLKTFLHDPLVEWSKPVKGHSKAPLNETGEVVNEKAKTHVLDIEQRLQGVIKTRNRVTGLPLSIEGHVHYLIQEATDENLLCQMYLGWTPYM
T1 sequence (Q96SW2 whole entry, looked up): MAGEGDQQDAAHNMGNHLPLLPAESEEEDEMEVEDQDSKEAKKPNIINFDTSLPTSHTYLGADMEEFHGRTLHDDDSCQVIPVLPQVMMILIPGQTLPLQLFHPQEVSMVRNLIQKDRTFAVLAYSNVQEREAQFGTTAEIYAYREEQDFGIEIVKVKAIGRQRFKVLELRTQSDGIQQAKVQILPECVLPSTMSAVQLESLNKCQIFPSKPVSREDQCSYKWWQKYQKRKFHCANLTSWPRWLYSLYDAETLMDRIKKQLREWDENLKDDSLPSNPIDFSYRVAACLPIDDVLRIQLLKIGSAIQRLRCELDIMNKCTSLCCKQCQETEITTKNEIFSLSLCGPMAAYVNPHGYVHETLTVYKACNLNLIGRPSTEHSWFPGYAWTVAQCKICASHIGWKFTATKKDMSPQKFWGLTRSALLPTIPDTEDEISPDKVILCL

[2] = target: T1, Protein cereblon/Serine/threonine-protein kinase ATR; assay: PROTAC activity at CRBN/ATR in human LoVo cells assessed as induction of ATR degradation at 1 uM incubated for 24 hrs by global proteomic profiling analysis; format: cell-based
LoVo [3] = assay: Induction of SIPA1L1 degradation in human LoVo cells at 1 uM incubated for 24 hrs by global proteomic profiling analysis; format: cell-based
[4] = Toxicity in BALB/c nude mouse xenografted with human LoVo cells assessed as body weight loss at 12.5 to 25 mg/kg, ip administered twice daily for 15 days; format: organism-based; settings: in vivo, 360 h, dose 12.5-25 mg/kg, time 15 day
Mus musculus = assay: Effect on CHK1 protein expression in BALB/c nude mouse xenografted with human LoVo cells at 12.5 to 25 mg/kg, ip administered once daily for 15 days by Western blot analysis; format: functional, organism-based; settings: dose 12.5-25 mg/kg, time 15.0 day
[5] = Cmax in BALB/c nude mouse xenografted with human LoVo cells at 25 mg/kg, ip administered as single dose and measured after 12 hrs by LC-MS/MS analysis; format: ADME, organism-based; settings: in vivo
[6] = AUC (0 to infinity) in BALB/c nude mouse xenografted with human LoVo cells at 25 mg/kg, ip administered as single dose and measured after 12 hrs by LC-MS/MS analysis; format: ADME, organism-based; settings: in vivo
[7] = target: T1, Protein cereblon/Serine/threonine-protein kinase ATR; assay: PROTAC activity at CRBN/ATR in human LoVo cells assessed as induction of ATR degradation at 2.5 uM by Western blot analysis; format: cell-based; settings: time 6-72 hrs, TDE = time-dependent effect
LoVo [8] = assay: Antiproliferative activity against ATM deficient human LoVo cells incubated for 72 hrs by CCK8 assay; format: functional, cell-based

In the case of `C[C@@H]1COCCN1c1cc(C2([S@@](C)(=O)=NC(=O)CCc3cn(CCCCCCCC(=O)Nc4cccc5c4C(=O)N(C4CCC(=O)NC4=O)C5=O)nn3)CC2)nc(-c2ccnc3[nH]ccc23)n1` (some centres undefined), the Emax [1] is reported as 84.3%, the Activity [2] is reported as “Active” and the Activity (LoVo [3]) is reported as “Active”. For the same compound, the Activity [4] was “Non-Toxic”, the Activity (Mus musculus) was “inactive” and the Cmax [5] was 1180 ng/mL. For the same compound, the AUC(0-inf) [6] was 4070 ng·h/mL, the Activity [7] was “Tde” and the IC50 (LoVo [8]) was 470 nM.
